Experimental data published in PubChem BioAssay (NCI).
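Growth conditions: 96-well plates. Treatment: test compound, 48 hours, 5 concentrations. Analysis: linear interpolation between bracketing concentrations; unreached endpoints set to highest concentration. Definition used: TGI = concentration required for complete inhibition of growth.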

Legend:
Experiment in all cases: NCI-60 cell line screen, 48 h
OVCAR-8 ovarian = system: OVCAR-8 ovarian
SK-MEL-28 melanoma = system: SK-MEL-28 melanoma
SK-OV-3 ovarian = system: SK-OV-3 ovarian
MOLT-4 leukemia = system: MOLT-4 leukemia
SF-539 CNS = system: SF-539 CNS
RPMI-8226 leukemia = system: RPMI-8226 leukemia
CAKI-1 renal = system: CAKI-1 renal
EKVX NSCLC = system: EKVX NSCLC
U251 CNS = system: U251 CNS
IGROV1 ovarian = system: IGROV1 ovarian
NCI-H460 lung = system: NCI-H460 lung
K-562 leukemia = system: K-562 leukemia
SW-620 colon = system: SW-620 colon
HCT-15 colon = system: HCT-15 colon
RXF 393 renal = system: RXF 393 renal
T-47D breast = system: T-47D breast
DU-145 prostate = system: DU-145 prostate
A498 renal = system: A498 renal
HOP-62 NSCLC = system: HOP-62 NSCLC
MDA-MB-435 = system: MDA-MB-435
MDA-MB-231 breast = system: MDA-MB-231 breast
HL-60(TB) leukemia = system: HL-60(TB) leukemia
KM12 colon = system: KM12 colon
SK-MEL-5 melanoma = system: SK-MEL-5 melanoma
OVCAR-4 ovarian = system: OVCAR-4 ovarian
SF-268 CNS = system: SF-268 CNS
NCI-H23 lung = system: NCI-H23 lung
HT29 colon = system: HT29 colon
BT-549 breast = system: BT-549 breast
A549 NSCLC = system: A549 NSCLC
786-0 renal = system: 786-0 renal
OVCAR-3 ovarian = system: OVCAR-3 ovarian
HCT-116 colon = system: HCT-116 colon
UO-31 renal = system: UO-31 renal
NCI/ADR-RES ovarian = system: NCI/ADR-RES ovarian
MDA-N = system: MDA-N
TK-10 renal = system: TK-10 renal
CCRF-CEM leukemia = system: CCRF-CEM leukemia
PC-3 prostate = system: PC-3 prostate
UACC-257 melanoma = system: UACC-257 melanoma
HS 578T breast = system: HS 578T breast
OVCAR-5 ovarian = system: OVCAR-5 ovarian
COLO 205 colon = system: COLO 205 colon
SR leukemia = system: SR leukemia
MALME-3M melanoma = system: MALME-3M melanoma
SK-MEL-2 melanoma = system: SK-MEL-2 melanoma
M14 melanoma = system: M14 melanoma
HCC-2998 colon = system: HCC-2998 colon
SF-295 CNS = system: SF-295 CNS
ACHN renal = system: ACHN renal
SN12C renal = system: SN12C renal
MCF7 breast = system: MCF7 breast
HOP-92 NSCLC = system: HOP-92 NSCLC
SNB-19 CNS = system: SNB-19 CNS
NCI-H522 lung = system: NCI-H522 lung
LOX IMVI melanoma = system: LOX IMVI melanoma
NCI-H226 lung = system: NCI-H226 lung
UACC-62 melanoma = system: UACC-62 melanoma

COC(=O)c1c(O)ccc2c1c1c(n2CCc2ccccc2)C(=O)c2ccccc2C1=O
TGI (OVCAR-8 ovarian): 22.1 µM
TGI (SK-MEL-28 melanoma): 30 µM
TGI (SK-OV-3 ovarian): 32.3 µM
TGI (MOLT-4 leukemia): 17.3 µM
TGI (SF-539 CNS): 30.8 µM
TGI (RPMI-8226 leukemia): 32.1 µM
TGI (CAKI-1 renal): 27.5 µM
TGI (EKVX NSCLC): 36.5 µM
TGI (U251 CNS): 26.8 µM
TGI (IGROV1 ovarian): 24.9 µM
TGI (NCI-H460 lung): 18 µM
TGI (K-562 leukemia): 25.8 µM
TGI (SW-620 colon): 30.3 µM
TGI (HCT-15 colon): 24.9 µM
TGI (RXF 393 renal): 34.9 µM
TGI (T-47D breast): 20.8 µM
TGI (DU-145 prostate): 40.7 µM
TGI (A498 renal): 31.5 µM
TGI (HOP-62 NSCLC): 36.6 µM
TGI (MDA-MB-435): 20.6 µM
TGI (MDA-MB-231 breast): 29.7 µM
TGI (HL-60(TB) leukemia): 37.9 µM
TGI (KM12 colon): 26.4 µM
TGI (SK-MEL-5 melanoma): 25.3 µM
TGI (OVCAR-4 ovarian): 20.7 µM
TGI (SF-268 CNS): 28.8 µM
TGI (NCI-H23 lung): 25.6 µM
TGI (HT29 colon): 27.1 µM
TGI (BT-549 breast): 29.6 µM
TGI (A549 NSCLC): 22.6 µM
TGI (786-0 renal): 31 µM
TGI (OVCAR-3 ovarian): 19.9 µM
TGI (HCT-116 colon): 23.3 µM
TGI (UO-31 renal): 23.1 µM
TGI (NCI/ADR-RES ovarian): 23.6 µM
TGI (MDA-N): 24.8 µM
TGI (TK-10 renal): 24.1 µM
TGI (CCRF-CEM leukemia): 50.8 µM
TGI (PC-3 prostate): 25.4 µM
TGI (UACC-257 melanoma): 32.3 µM
TGI (HS 578T breast): 36.4 µM
TGI (OVCAR-5 ovarian): 37.7 µM
TGI (COLO 205 colon): 3.24 µM
TGI (SR leukemia): 22.7 µM
TGI (MALME-3M melanoma): 29.6 µM
TGI (SK-MEL-2 melanoma): 29.8 µM
TGI (M14 melanoma): 30.3 µM
TGI (HCC-2998 colon): 4.96 µM
TGI (SF-295 CNS): 36.2 µM
TGI (ACHN renal): 24.5 µM
TGI (SN12C renal): 24.9 µM
TGI (MCF7 breast): 30.2 µM
TGI (HOP-92 NSCLC): 31.4 µM
TGI (SNB-19 CNS): 32.8 µM
TGI (NCI-H522 lung): 22.7 µM
TGI (LOX IMVI melanoma): 38.4 µM
TGI (NCI-H226 lung): 34.1 µM

O=C(CCc1ccc(O)cc1)NCCc1cccc(O)c1
TGI (OVCAR-8 ovarian): > 50 µM
TGI (SK-MEL-28 melanoma): > 50 µM
TGI (SK-OV-3 ovarian): > 50 µM
TGI (MOLT-4 leukemia): > 50 µM
TGI (SF-539 CNS): > 50 µM
TGI (CAKI-1 renal): > 50 µM
TGI (EKVX NSCLC): > 50 µM
TGI (U251 CNS): > 50 µM
TGI (IGROV1 ovarian): > 50 µM
TGI (NCI-H460 lung): > 50 µM
TGI (K-562 leukemia): > 50 µM
TGI (HCT-15 colon): > 50 µM
TGI (RXF 393 renal): > 50 µM
TGI (T-47D breast): > 50 µM
TGI (DU-145 prostate): > 50 µM
TGI (A498 renal): > 50 µM
TGI (HOP-62 NSCLC): > 50 µM
TGI (MDA-MB-435): > 50 µM
TGI (MDA-MB-231 breast): > 50 µM
TGI (HL-60(TB) leukemia): > 50 µM
TGI (KM12 colon): > 50 µM
TGI (SK-MEL-5 melanoma): > 50 µM
TGI (OVCAR-4 ovarian): > 50 µM
TGI (SF-268 CNS): > 50 µM
TGI (UACC-62 melanoma): > 50 µM
TGI (NCI-H23 lung): > 50 µM
TGI (HT29 colon): > 50 µM
TGI (BT-549 breast): > 50 µM
TGI (A549 NSCLC): > 50 µM
TGI (786-0 renal): > 50 µM
TGI (OVCAR-3 ovarian): > 50 µM
TGI (HCT-116 colon): > 50 µM
TGI (UO-31 renal): > 50 µM
TGI (NCI/ADR-RES ovarian): > 50 µM
TGI (MDA-N): > 50 µM
TGI (TK-10 renal): > 50 µM
TGI (CCRF-CEM leukemia): > 50 µM
TGI (PC-3 prostate): > 50 µM
TGI (UACC-257 melanoma): > 50 µM
TGI (HS 578T breast): > 50 µM
TGI (OVCAR-5 ovarian): > 50 µM
TGI (COLO 205 colon): > 50 µM
TGI (SR leukemia): > 50 µM
TGI (MALME-3M melanoma): > 50 µM
TGI (SK-MEL-2 melanoma): > 50 µM
TGI (M14 melanoma): > 50 µM
TGI (SF-295 CNS): > 50 µM
TGI (ACHN renal): > 50 µM
TGI (SN12C renal): > 50 µM
TGI (MCF7 breast): > 50 µM
TGI (HOP-92 NSCLC): > 50 µM
TGI (SNB-19 CNS): > 50 µM
TGI (NCI-H522 lung): > 50 µM
TGI (LOX IMVI melanoma): > 50 µM

CC(C)(C)OCC1NC(=O)[C@@H]2Cc3c([nH]c4ccccc34)C(C3CCCCC3)N2C1=O (stereo not given in full)
TGI (OVCAR-8 ovarian): 87.3 µM
TGI (SK-MEL-28 melanoma): 77.6 µM
TGI (SK-OV-3 ovarian): > 100 µM
TGI (MOLT-4 leukemia): 49.6 µM
TGI (RPMI-8226 leukemia): 49 µM
TGI (CAKI-1 renal): 53.8 µM
TGI (EKVX NSCLC): 67.9 µM
TGI (U251 CNS): 38.5 µM
TGI (IGROV1 ovarian): 57.7 µM
TGI (K-562 leukemia): 61.6 µM
TGI (SW-620 colon): 85.5 µM
TGI (HCT-15 colon): 69 µM
TGI (RXF 393 renal): 38.4 µM
TGI (T-47D breast): 71.1 µM
TGI (DU-145 prostate): > 100 µM
TGI (A498 renal): > 100 µM
TGI (HOP-62 NSCLC): 39.6 µM
TGI (MDA-MB-435): 35.7 µM
TGI (MDA-MB-231 breast): 35.1 µM
TGI (HL-60(TB) leukemia): 52.1 µM
TGI (KM12 colon): 44 µM
TGI (SK-MEL-5 melanoma): 29 µM
TGI (OVCAR-4 ovarian): > 100 µM
TGI (SF-268 CNS): 95.6 µM
TGI (UACC-62 melanoma): 31.2 µM
TGI (NCI-H23 lung): 57.8 µM
TGI (HT29 colon): 35.7 µM
TGI (BT-549 breast): 56.8 µM
TGI (A549 NSCLC): > 100 µM
TGI (786-0 renal): 50.2 µM
TGI (OVCAR-3 ovarian): 33.8 µM
TGI (HCT-116 colon): 30.5 µM
TGI (UO-31 renal): 98.8 µM
TGI (NCI/ADR-RES ovarian): 57.5 µM
TGI (MDA-N): 37.4 µM
TGI (TK-10 renal): 67.6 µM
TGI (PC-3 prostate): 46.3 µM
TGI (UACC-257 melanoma): 41 µM
TGI (HS 578T breast): 51.8 µM
TGI (OVCAR-5 ovarian): 50.8 µM
TGI (COLO 205 colon): 51.4 µM
TGI (SR leukemia): 45.4 µM
TGI (MALME-3M melanoma): 42.8 µM
TGI (SK-MEL-2 melanoma): 40.8 µM
TGI (M14 melanoma): 42 µM
TGI (SF-295 CNS): 40.8 µM
TGI (ACHN renal): 68.6 µM
TGI (SN12C renal): 43.1 µM
TGI (MCF7 breast): > 100 µM
TGI (HOP-92 NSCLC): 55.7 µM
TGI (SNB-19 CNS): > 100 µM
TGI (NCI-H522 lung): 31.4 µM
TGI (LOX IMVI melanoma): 33.3 µM
TGI (NCI-H226 lung): 74.9 µM
